{
  "source": "patent EP1263458B1",
  "about": "“LOWERING SERUM CHOLESTEROL” (NOVO NORDISK A/S, priority 2000, dated 2005)",
  "test_system": "Wistar rats subjected to neonatal monosodium glutamate treatment (MSG)",
  "experiment": "Acute and subchronic anorectic effects, plasma triglycerides, model of hypothalamic obesity (MSG rats)",
  "assay_type": "in vivo",
  "settings": "100 µg/kg s.c. twice daily, rat group not specified",
  "description": "Solutions were always made fresh approximately 1 hour prior to use and stored at 4°C in sterile tubes.",
  "key": {"[1]": {"settings": "normalised within few days of treatment"}},
  "data": [
    {"smiles": "CCCCCCCCCCCCCCCC(=O)N[C@@H](CCC(=O)NCCCC[C@H](NC(=O)[C@H](C)NC(=O)[C@H](C)NC(=O)[C@H](CCC(N)=O)NC(=O)CNC(=O)[C@H](CCC(=O)O)NC(=O)[C@H](CC(C)C)NC(=O)[C@H](Cc1ccc(O)cc1)NC(=O)[C@H](CO)NC(=O)[C@H](CO)NC(=O)[C@@H](NC(=O)[C@H](CC(=O)O)NC(=O)[C@H](CO)NC(=O)[C@@H](NC(=O)[C@H](Cc1ccccc1)NC(=O)[C@@H](NC(=O)CNC(=O)[C@H](CCC(=O)O)NC(=O)[C@H](C)NC(=O)[C@@H](N)Cc1cnc[nH]1)[C@@H](C)O)[C@@H](C)O)C(C)C)C(=O)N[C@@H](CCC(=O)O)C(=O)N[C@@H](Cc1ccccc1)C(=O)N[C@H](C(=O)N[C@@H](C)C(=O)N[C@@H](Cc1c[nH]c2ccccc12)C(=O)N[C@@H](CC(C)C)C(=O)N[C@H](C(=O)N[C@@H](CCCNC(=N)N)C(=O)NCC(=O)N[C@@H](CCCNC(=N)N)C(=O)NCC(=O)O)C(C)C)[C@@H](C)CC)C(=O)O", "note": "[GLP1, Arg^34, Lys^26(N^ε-(γ-Glu(N^α-hexadecanoyl)))-GLP-1(7-37)]", "values": [
      {"measurement": "diuresis", "setting": "[1]", "result": "increases"},
      {"measurement": "water intake", "setting": "[1]", "result": "Initial decreases"},
      {"measurement": "plasma parameters of renal function", "setting": "throughout the experiment", "result": "remained normal"}
    ]}
  ]
}
